Read-outs that look alike come from different tables or passages of the source.
Assays:
NlugCSP8 [1] = biological target: T1, NlugCSP8 (Nilaparvata lugens, UniProt B7TVH4); assay: Titration of NlugCSP8 with 1-NPN (Scatchard plot); format: binding; details: read-out: dissociation constant
Description: Fluorescence-based ligand binding assays were performed based on the method described by Sun X. et al. ([2016]). According to previous studies about the rice-specific volatiles (Fujii et al., [2010]; He et al., [2011]; Yang et al., [2014]; Zhang et al., [2014]), 25 potential ligands were selected for the fluorescence binding assays (Table 1). All the ligands used in this study were purchased from Sigma-Aldrich (St. Louis, MO, USA) and stored according to manufacturer instructions. The ligand binding affinity for various ligands was determined by using the 1-NPN (N-phenyl-1-naphthylamine) as a fluorescent probe. RF-5301PC fluorimeter (Shimadzu, Kyoto, Japan) was used for fluorescence binding assay at 25°C with 10 nm slit width and 1 cm light path quartz cuvette for emission and excitation. The 1-NPN/NlugCSP8 mixture was excited using an excitation wavelength of 337 nm, and the fluorescence intensity was recorded between 350 and 600 nm following an established protocol (Ban et al., [2002]). The 1-NPN and all the potential ligands were prepared in spectrophotometric-grade methanol. The binding constant for 1-NPN was measured by adding aliquots of 1 mM 1-NPN into a 2 μM solution of protein in 30 mM Tris-HCL at room temperature. […] For each test, fluorescence measurement was conducted after the reaction was incubated for 2 min at room temperature (Liu et al., [2015]). […]

NlugCSP8 [2] = biological target: T1, NlugCSP8; assay: Fluorescence competitive ligand binding assay with 1-NPN probe
Description: The recombinant pET-30a/CSP8 expression plasmid was transformed into Escherichia coli BL21 (DE3) competent cells. After DNA sequencing, a single positive clone was grown in 10 mL Luria-Bertani (LB) medium containing kanamycin (50 μg/mL) with shaking overnight at 220 rpm and 37°C. The culture was diluted to 2 L LB medium (supplemented with 50 μg/mL kanamycin) and grown at 37°C with shaking at 220 rpm until the culture reached the optical density value of ~0.6–0.7 at 600 nm. The recombinant protein expression was induced by the addition of 2 mM IPTG (Isopropyl β-D-1-thiogalactopyranoside), followed by culturing for 4 h at 37°C. The bacterial cells were harvested by centrifugation (10,000 rpm, 10 min) and sonicated. The expressed protein presented in the supernatant as a soluble form. Then, NlugCSP8 purification was performed using a Ni-ion affinity chromatography column (GE Healthcare, Uppsala, Sweden). His-tag was removed from the recombinant protein with the addition of recombinant bovine enterokinase (EK) in the eluted fractions of protein, followed by 16 h incubation at 25°C. After running the digested protein back through the Ni-ion affinity chromatography column, the tag-free protein was obtained in the flow through fraction. Protein expression and purification steps were assessed by 15% SDS-PAGE (sodium dodecyl sulfate-polyacrylamide gel electrophoresis). Finally, purified protein was dialyzed in Tris buffer (pH 5.0) and (pH 7.4). The concentration of purified protein was determined prior to perform ligand-binding specificities of NlugCSP8 with 25 selected ligands at pH 5.0 and pH 7.4.
Fluorescence-based ligand binding assays were performed based on the method described by Sun X. et al. ([2016]). According to previous studies about the rice-specific volatiles (Fujii et al., [2010]; He et al., [2011]; Yang et al., [2014]; Zhang et al., [2014]), 25 potential ligands were selected for the fluorescence binding assays (Table 1). All the ligands used in this study were purchased from Sigma-Aldrich (St. Louis, MO, USA) and stored according to manufacturer instructions. The ligand binding affinity for various ligands was determined by using the 1-NPN (N-phenyl-1-naphthylamine) as a fluorescent probe. RF-5301PC fluorimeter (Shimadzu, Kyoto, Japan) was used for fluorescence binding assay at 25°C with 10 nm slit width and 1 cm light path quartz cuvette for emission and excitation. The 1-NPN/NlugCSP8 mixture was excited using an excitation wavelength of 337 nm, and the fluorescence intensity was recorded between 350 and 600 nm following an established protocol (Ban et al., [2002]). The 1-NPN and all the potential ligands were prepared in spectrophotometric-grade methanol. The binding constant for 1-NPN was measured by adding aliquots of 1 mM 1-NPN into a 2 μM solution of protein in 30 mM Tris-HCL at room temperature. […] For each test, fluorescence measurement was conducted after the reaction was incubated for 2 min at room temperature (Liu et al., [2015]). Three independent measurements were used to obtain the binding data. 1-NPN/NlugCSP8 dissociation constants (Kd) were calculated from Scatchard plots of the binding data using the Prism 5 software (GraphPad, La Jolla, CA, USA). The curves were linearized using the Scatchard plot program (Campanacci et al., [2001]). The dissociation constants of the competitors were determined by using the corresponding IC50-values according to the equation Ki = [IC50]/ (1+[1-NPN]/K1−NPN), where IC50 represents the concentration of ligand which decreases the fluorescence intensity of [1-NPN], [1-NPN] is the free concentration of 1-NPN and K1−NPN is the dissociation constant of the NlugCSP8/1-NPN complex (Ban et al., [2003]; Tian and Zhang, [2016]). For the reader's convenience, data were recalculated as 1/ki × 1,000, for which a larger value designates a stronger ligand binding affinity.

Nilaparvata lugens = assay: H-tube olfactometer behavioral assay; format: in vivo; details: macropterous adults, vs liquid paraffin
Description: BPH behavior responses to different ligands were tested in an H-tube olfactometer similar to which previously used by Yi et al. ([2018]) in our laboratory. The H-tube olfactometer mainly consists of two glass tubes (arms) with gauze at its top end. These two glass tubes were connected by another tube (5 cm in diameter, 20 cm long with a hole of 1 cm in the middle for releasing BPH). Twenty macropterous (10 from each sex) BPH adults were introduced into the H-tube and the number of BPH was counted at 30 min after their introduction. Liquid paraffin was used as in control arm. Rubber septa were absorbed in the liquid paraffin and solutions of the odor molecules to be tested (liquid paraffin+ different concentration of tested volatile) and placed at room temperature. After 24 h, one rubber septa from each control and tested volatile was put in each glass arm. After one replication, rubber septa were changed and three treatments (1, 10, and 100 μl/mL) of tested volatiles against macropterous adults were tested in eight replications. After four replications, the H-tube olfactometer was washed with 75% alcohol and the liquid paraffin rubber septa were placed in another arm to complete the other four replications. The impact of NlugCSP8-dsRNA on the preference of N. lugens was also tested by H-tube olfactometer assays. Corresponding control experiments without dsRNA injection were performed to investigate whether the preference of N. lugens was affected by volatile concentration change. Three treatments of BPH (NlugCSP8-dsRNA injected, GFP-dsRNA injected, and without injection) were tested in four replications. As in case of dsRNA injected insects, the concentration of volatiles that have highly significant attractive results on non-injected insects used for dsCSP8 and dsGFP injected insects. In order to evaluate the best RNAi effect, mRNA levels of NlugCSP8-dsRNA injected insects were determined and compared with the GFP-dsRNA-injected and non-injected insects, prior to H-tube olfactometer bioassay. Based on the findings of previous step, we re-inject the BPH and the individuals with the best post-injection RNAi effect after 7-days, were used in the H-tube olfactometer bioassay. Bioassays were performed under controlled conditions at 26 ± 2°C and 75 ± 5% relative humidity.

[3] = pH 5.0, calculated from IC50, read-out: Ki
[4] = pH 7.4, calculated from IC50, read-out: Ki
[5] = Ki, pH 5.0, calculated from IC50
[6] = Ki, pH 7.4, calculated from IC50

T1 sequence (B7TVH4 entry or part of it): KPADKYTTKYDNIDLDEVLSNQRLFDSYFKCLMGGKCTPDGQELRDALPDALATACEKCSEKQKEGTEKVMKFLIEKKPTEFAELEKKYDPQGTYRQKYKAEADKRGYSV

| Molecule | Ki (NlugCSP8 [2]; [3]) [µM] | IC50 (NlugCSP8 [2]; pH 5.0, read-out: IC50) [µM] | Ki (NlugCSP8 [2]; [4]) [µM] | IC50 (NlugCSP8 [2]; pH 7.4, read-out: IC50) [µM] | IC50 (NlugCSP8 [2]; IC50, pH 5.0) [µM] | IC50 (NlugCSP8 [2]; IC50, pH 7.4) [µM] | Ki (NlugCSP8 [2]; [5]) [µM] | Ki (NlugCSP8 [2]; [6]) [µM] | other results |
| --- | --- | --- | --- | --- | --- | --- | --- | --- | --- |
| c1ccc(Nc2cccc3ccccc23)cc1 [1-NPN, N-phenyl-1-naphthylamine] | – | – | – | – | – | – | – | – | Kd (NlugCSP8 [1]; pH 5.0): 6.8 µM; Kd (NlugCSP8 [1]; pH 7.4): 4.99 µM |
| CCCCCCCCCCCCCCCCCCCC [Eicosane] | 12.2 | 14 | 12.4 | 14.9 | – | – | – | – | – |
| CCC/C=C/CO [Trans-2-hexen-1-ol] | – | – | – | – | 18.2 | 25.9 | 15.9 | 21.5 | – |
| CC1=CC=C(C(C)C)CC1 [α-Terpinene] | – | – | – | – | 16.4 | 16.6 | 14.3 | 13.8 | – |
| (–)-Limoonene | 17.8 | 20.4 | 20.4 | 24.4 | – | – | – | – | – |
| Farnesene | 173 | 199 | 44.8 | 53.8 | – | – | – | – | Ki (NlugCSP8 [2]; pH 5.0, calculated from IC50, listed as farnesene, read-out: Ki): > 40 µM; Ki (NlugCSP8 [2]; pH 7.4, calculated from IC50, listed as farnesene, read-out: Ki): > 40 µM |
| CC1=CC[C@](O)(C(C)C)CC1 [(–)-Terpinen-4-ol] | – | – | – | – | 11.4 | 19 | 9.97 | 15.8 | behavioral response of BPH (Nilaparvata lugens; 1 μl/mL): attractive; behavioral response of BPH (Nilaparvata lugens; 10 μl/mL): attractive |
| CCCCCCCCCCCCCCCC [Hexadecane] | 23.8 | 27.3 | 15.9 | 19 | – | – | – | – | – |
| Cc1ccc(C(C)C)cc1 [4-Isopropyl to luene] | – | – | – | – | 22.7 | 20.3 | 19.8 | 16.9 | – |
| CCC(O)CC [3-Pentanol] | 27.4 | 31.4 | 19.6 | 23.5 | – | – | – | – | – |
| CC/C=C\CCO [Cis-3-hexen-1-ol] | – | – | – | – | 38 | 27.5 | 33.1 | 22.9 | – |
| OC1CCCCC1 [Cyclohexanol] | – | – | – | – | 95.5 | 51.2 | 83.3 | 42.7 | – |
| CCCCCC(C)O (stereo not shown) [2-Heptanol] | 9.77 | 11.2 | 13.8 | 16.5 | – | – | – | – | behavioral response of BPH (Nilaparvata lugens; concentration not given): significant aversion |
